Data from ChEMBL document CHEMBL1201862, “PubChem BioAssay data set” (2004).
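These data come from cells grown in 96-well plates and exposed to compound for 48 hours at five concentrations. Here, GI50 denotes the concentration required for 50% inhibition of growth.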 Activity calls are given as the source filed them. Rule as the data show it: active = GI50 up to about 1.1 µM and inactive = higher.

Columns and labels:
Assay in all cases: growth of human tumour cells (NCI), 48 h
[1] = test system: CAKI-1
[2] = test system: DU-145
[3] = test system: HCT-116
[4] = test system: HL-60
[5] = test system: HOP-92
[6] = test system: K562
[7] = test system: LOX IMVI
[8] = test system: M14
[9] = test system: MCF7
[10] = test system: NCI-H460
[11] = test system: OVCAR-3
[12] = test system: RXF 393
[13] = test system: SF-268
[14] = test system: SF-295
[15] = test system: SK-MEL-2
[16] = test system: SK-OV-3
[17] = test system: T47D
[18] = test system: TK-10
[19] = test system: UACC-257

SMILES | GI50 [1] | GI50 [2] | GI50 [3] | GI50 [4] | GI50 [5] | GI50 [6] | GI50 [7] | GI50 [8] | GI50 [9] | GI50 [10] | GI50 [11] | GI50 [12] | GI50 [13] | GI50 [14] | GI50 [15] | GI50 [16] | GI50 [17] | GI50 [18] | GI50 [19]
COC(=O)c1ccc(C)cc1CC1Cc2c(C)cccc2C1=O (stereo not drawn) | 6.4 µM (inactive) | 29.4 µM (inactive) | 3.58 µM (inactive) | 4.54 µM (inactive) | 16.9 µM (inactive) | 2.94 µM (inactive) | 8.09 µM (inactive) | 9.27 µM (inactive) | 2.11 µM (inactive) | 17.8 µM (inactive) | 3.96 µM (inactive) | 10.9 µM (inactive) | 9.89 µM (inactive) | 7.73 µM (inactive) | 5.9 µM (inactive) | 6.21 µM (inactive) | 7.93 µM (inactive) | 11.5 µM (inactive) | 10.4 µM (inactive)
CC(C)N(CC(=O)O)CC(=O)O | > 100 µM (inactive) | > 100 µM (inactive) | > 100 µM (inactive) | > 100 µM (inactive) | > 100 µM (inactive) | > 100 µM (inactive) | > 100 µM (inactive) | > 100 µM (inactive) | > 100 µM (inactive) | > 100 µM (inactive) | > 100 µM (inactive) | > 100 µM (inactive) | > 100 µM (inactive) | > 100 µM (inactive) | > 100 µM (inactive) | > 100 µM (inactive) | > 100 µM (inactive) | > 100 µM (inactive) | > 100 µM (inactive)
CC(=O)OCC1OC(n2c(N)c(C#N)c(-c3cccc(Cl)c3)c(C#N)c2=S)C(OC(C)=O)C(OC(C)=O)C1OC(C)=O (stereo not drawn) | 26.8 µM (inactive) | 18.2 µM (inactive) | 22.4 µM (inactive) | 17.9 µM (inactive) | 23 µM (inactive) | 28.2 µM (inactive) | 14.7 µM (inactive) | 22.4 µM (inactive) | 21.5 µM (inactive) | 24.8 µM (inactive) | 14.8 µM (inactive) | 3.9 µM (inactive) | 13.3 µM (inactive) | 31.2 µM (inactive) | 19 µM (inactive) | 20.7 µM (inactive) | 18.9 µM (inactive) | 19.9 µM (inactive) | 22 µM (inactive)
c1ccc(CSc2ccccc2CN2CCN(Cc3ccccc3SCc3ccccc3)CCN(Cc3ccccc3SCc3ccccc3)CC2)cc1 | 3.21 µM (inactive) | 2.94 µM (inactive) | 0.646 µM (active) | 1.5 µM (inactive) | 0.359 µM (active) | 0.989 µM (active) | 1.33 µM (inactive) | 1.55 µM (inactive) | 1.48 µM (inactive) | 1.19 µM (inactive) | 0.466 µM (active) | 1.77 µM (inactive) | 2.94 µM (inactive) | 1.04 µM (active) | 1.45 µM (inactive) | 2.21 µM (inactive) | 1.43 µM (inactive) | 2.3 µM (inactive) | 1.39 µM (inactive)
CCOC(=O)CCSc1nc2ccc(I)cc2c(=O)n1Cc1ccccc1 | 2.67 µM (inactive) | 37.1 µM (inactive) | 18.8 µM (inactive) | 19.5 µM (inactive) | 13.6 µM (inactive) | 24 µM (inactive) | 28.2 µM (inactive) | 24.5 µM (inactive) | 29.1 µM (inactive) | 22.6 µM (inactive) | 17.9 µM (inactive) | 26.9 µM (inactive) | 27.2 µM (inactive) | 21.7 µM (inactive) | 31 µM (inactive) | > 69.8 µM (inactive) | 26.9 µM (inactive) | 39.4 µM (inactive) | 25.5 µM (inactive)
CCCC/C=C/C/C=C/CCCCCCCCC(=O)OCC1CCCN2CCCCC12 (stereo not drawn) | 31 µM (inactive) | > 100 µM (inactive) | > 100 µM (inactive) | 17.3 µM (inactive) | 31.7 µM (inactive) | > 100 µM (inactive) | 76.9 µM (inactive) | > 100 µM (inactive) | > 100 µM (inactive) | > 100 µM (inactive) | > 100 µM (inactive) | > 100 µM (inactive) | > 100 µM (inactive) | > 100 µM (inactive) | > 100 µM (inactive) | > 100 µM (inactive) | 12.8 µM (inactive) | > 100 µM (inactive) | 63.2 µM (inactive)
CC(=O)OCC1OC(n2c(C)c(/N=N/c3ccccc3)c(C)c(C#N)c2=S)C(OC(C)=O)C(OC(C)=O)C1OC(C)=O (stereo not drawn) | 26.6 µM (inactive) | 83.4 µM (inactive) | 16.9 µM (inactive) | > 100 µM (inactive) | 8.99 µM (inactive) | > 100 µM (inactive) | 39.6 µM (inactive) | 33.7 µM (inactive) | > 100 µM (inactive) | 39.8 µM (inactive) | > 100 µM (inactive) | 14.4 µM (inactive) | 57.1 µM (inactive) | 15 µM (inactive) | 24.9 µM (inactive) | 22.6 µM (inactive) | > 100 µM (inactive) | 29 µM (inactive) | > 100 µM (inactive)
